Laboratory results: patent publication US20230183193A1, “4-DIFLUOROMETHYL BENZOYL AMIDES WITH HERBICIDAL ACTION” (BAYER CROPSCIENCE AKTIENGESELLSCHAFT, priority 2017, published 2023)

Columns and labels:
Type in all cases: in vivo
Avena fatua [1] = assay: Pre-emergence herbicidal action, AVEFA
Method in brief: (§1)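 Percent herbicidal activity rated by eye 3 weeks after pre-emergence soil-surface application, compared with untreated pots. Seeds sat under sandy loam; sprays carried 0.2% wetting agent.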

Amaranthus retroflexus [2] = assay: Pre-emergence herbicidal action, AMARE; details: for Herbicidal efficacy against AMARE: comparison with WO 2011035874, Table H; for herbicidal activity AMARE: dosage 320 g/ha, scored visually after 3 weeks vs untreated controls
Method in brief: as §1

Alopecurus myosuroides [3] = assay: Pre-emergence herbicidal action, ALOMY
Method in brief: as §1

Polygonum convolvulus = assay: Pre-emergence herbicidal action, POLCO
Text: (§2) 1. Pre-Emergence Herbicidal Action Against Harmful Plants Seeds of monocotyledonous and dicotyledonous weed plants and crop plants are laid out in sandy loam soil in wood-fiber pots and covered with soil. The compounds of the invention, formulated in the form of wettable powders (WP) or as emulsion concentrates (EC), are then applied to the surface of the covering soil in the form of an aqueous suspension or emulsion at a water application rate equating to […], with addition of 0.2% wetting agent. After the treatment, the pots are placed in a greenhouse and kept under good growth conditions for the trial plants. The damage to the test plants is scored visually after a test period of 3 weeks by comparison with untreated controls (herbicidal activity in percent (%): 100% activity=the plants have died, 0% activity=like control plants).
(§3) For comparison, the herbicidal activity of numerous compounds according to the invention was tested with the structurally closest compounds known from the documents WO 2011/035874, WO 2012/028579 and WO 2012/126932, by the pre- and post-emergence method.

ECHCG [4] = assay: Pre-emergence herbicidal action, ECHCG; details: comparison with WO 2011035874, Table G
Text: as §2

Amaranthus retroflexus [5] = assay: Post-emergence herbicidal action, AMARE; details: 80 g/ha; for herbicidal activity AMARE: Table D
Method in brief: (§4)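 Herbicidal effect is rated visually as percent versus untreated plants (100% = dead, 0% = like control) about 3 weeks after spraying. Plants were sown in sandy loam in the greenhouse and sprayed on green parts at the one-leaf stage, 2 to 3 weeks post-sowing.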

Veronica persica [6] = assay: Post-emergence herbicidal action, VERPE
Procedure: (§5) Seeds of monocotyledonous and dicotyledonous weed and crop plants are laid out in sandy loam soil in wood-fiber pots, covered with soil and cultivated in a greenhouse under good growth conditions. 2 to 3 weeks after sowing, the test plants are treated at the one-leaf stage. The compounds of the invention, formulated in the form of wettable powders (WP) or as emulsion concentrates (EC), are then sprayed onto the green parts of the plants in the form of an aqueous suspension or emulsion at a water application rate equating to […], with addition of 0.2% wetting agent. After the test plants have been left to stand in the greenhouse under optimal growth conditions for about 3 weeks, the action of the preparations is assessed visually in comparison to untreated controls (herbicidal action in percent (%): 100% activity=the plants have died, 0% activity=like control plants). […] At the same time, inventive compounds leave Gramineae crops such as barley, wheat, rye, millet/sorghum, corn or rice virtually undamaged when applied post-emergence, even at high active compound dosages. In addition, some substances are also harmless to dicotyledonous crops such as soya, cotton, oilseed rape, sugar beet or potatoes. Some of the compounds according to the invention have high selectivity and are therefore suitable for controlling unwanted vegetation in agricultural crops by the post-emergence method. The data of Tables C and D below illustrate, in an exemplary manner, the […] herbicidal action of the compounds according to the invention, the herbicidal activity being stated in percent.
as §3

Pharbitis purpureum = assay: Post-emergence herbicidal action, PHBPU; details: 80 g/ha; for Herbicidal activity PHBPU: Table D
Method in brief: as §4

Stellaria media [7] = assay: Post-emergence herbicidal action, STEME; details: 80 g/ha; for Herbicidal activity STEME: Table D
Method in brief: as §4

Abutilon theophrasti [8] = assay: Pre-emergence herbicidal action, ABUTH; details: for Herbicidal efficacy against ABUTH: comparison with WO 2011035874, Table G; for herbicidal activity ABUTH: dosage 320 g/ha, scored visually after 3 weeks vs untreated controls
Method in brief: as §1

Stellaria media [9] = assay: Pre-emergence herbicidal action, STEME; details: for Herbicidal efficacy against STEME: comparison with WO 2011035874, Table H; for Herbicidal activity STEME: dosage 320 g/ha, scored visually after 3 weeks vs untreated controls
Method in brief: as §1

Abutilon theophrasti [10] = assay: Post-emergence herbicidal action, ABUTH; details: 80 g/ha; for herbicidal activity ABUTH: Table D
Method in brief: as §4

Viola tricolor [11] = assay: Pre-emergence herbicidal action, VIOTR; details: for herbicidal activity VIOTR: scored visually after 3 weeks vs untreated controls
Method in brief: as §1

Cyperus serotinus = assay: Pre-emergence herbicidal action, CYPES; details: for herbicidal activity CYPES: scored visually after 3 weeks vs untreated controls
Method in brief: as §1

Viola tricolor [12] = assay: Post-emergence herbicidal action, VIOTR; details: for herbicidal activity VIOTR: Table D
Method in brief: as §4

Veronica persica [13] = assay: Pre-emergence herbicidal action, VERPE; details: comparison with WO 2011035874, Table H
Text: as §2, §3

Setaria viridis [14] = assay: Pre-emergence herbicidal action, SETVI; details: for herbicidal activity SETVI: scored visually after 3 weeks vs untreated controls
Method in brief: as §1

Matricaria inodora [15] = assay: Post-emergence herbicidal action, MATIN
Procedure: as §5, §3

Matricaria inodora [16] = assay: Pre-emergence herbicidal action, MATIN; details: dosage 320 g/ha, scored visually after 3 weeks vs untreated controls
Method in brief: as §1

Alopecurus myosuroides [17] = assay: Post-emergence herbicidal action, ALOMY
Method in brief: as §4

Avena fatua [18] = assay: Post-emergence herbicidal action, AVEFA; details: for Herbicidal efficacy against AVEFA: dosage 20 g/ha, Table M
Method in brief: as §4

Setaria viridis [19] = assay: Post-emergence herbicidal action, SETVI; details: for herbicidal activity SETVI: 80 g/ha, Table C; for Herbicidal efficacy against SETVI: dosage 20 g/ha, Table M
Method in brief: as §4

LOLMU = assay: Pre-emergence herbicidal action, LOLMU; details: Table L
ECHCG [20] = assay: Post-emergence herbicidal action, ECHCG; details: 80 g/ha, Table C
Method in brief: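 Weed and crop plants grown in sandy loam in the greenhouse, treated at the one-leaf stage 2–3 weeks after sowing. Damage scored visually after about 3 weeks vs untreated controls (0% = control, 100% = dead).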

[21] = 80 g/ha, comparison with WO 2011035874, Table G
[22] = 320 g/ha, comparison with WO 2011035874, Table G
[23] = 80 g/ha, comparison with WO 2011035874, Table H
[24] = 320 g/ha, comparison with WO 2011035874, Table H
[25] = comparison with WO 2011035874, Table E
[26] = 80 g/ha, comparison with WO 2011035874, Table E
[27] = comparison with WO2011035874, Table F
[28] = 80 g/ha, comparison with WO2011035874, Table F
[29] = dosage 320 g/ha, scored visually after 3 weeks vs untreated controls

CSc1c(C(F)F)ccc(C(=O)Nc2nonc2C)c1C [Example 5-1]
40%: Herbicidal efficacy against ALOMY (Alopecurus myosuroides [3]; [22]) | Herbicidal efficacy against MATIN (Matricaria inodora [15]; [26]) | Herbicidal efficacy against MATIN (Matricaria inodora [15]; [28])
90%: Herbicidal activity PHBPU (Pharbitis purpureum) | Herbicidal efficacy against PHBPU (Pharbitis purpureum; [25]) | Herbicidal efficacy against PHBPU (Pharbitis purpureum; [27]) | Herbicidal efficacy against STEME (Stellaria media [9]; 320 g/ha) | Herbicidal activity STEME (Stellaria media [9])
100%: Herbicidal efficacy against AMARE (Amaranthus retroflexus [2]; 80 g/ha) | Herbicidal efficacy against AMARE (Amaranthus retroflexus [2]; 320 g/ha) | herbicidal activity AMARE (Amaranthus retroflexus [2]) | Herbicidal efficacy against POLCO (Polygonum convolvulus; [24]) | Herbicidal efficacy against ECHCG (ECHCG [4]; 320 g/ha) | Herbicidal efficacy against VERPE (Veronica persica [6]; [26]) | Herbicidal activity STEME (Stellaria media [7]) | Herbicidal efficacy against STEME (Stellaria media [7]; [25]) | Herbicidal efficacy against STEME (Stellaria media [7]; [27]) | Herbicidal efficacy against ABUTH (Abutilon theophrasti [8]; 80 g/ha) | Herbicidal efficacy against ABUTH (Abutilon theophrasti [8]; 320 g/ha) | herbicidal activity ABUTH (Abutilon theophrasti [8]) | herbicidal activity ABUTH (Abutilon theophrasti [10]) | Herbicidal efficacy against ABUTH (Abutilon theophrasti [10]; [25]) | Herbicidal efficacy against ABUTH (Abutilon theophrasti [10]; [27]) | Herbicidal efficacy against VIOTR (Viola tricolor [11]; [23]) | Herbicidal efficacy against VIOTR (Viola tricolor [11]; [24]) | herbicidal activity VIOTR (Viola tricolor [11]; dosage 320 g/ha) | herbicidal activity VIOTR (Viola tricolor [12]; 80 g/ha) | Herbicidal efficacy against VIOTR (Viola tricolor [12]; [26]) | Herbicidal efficacy against VIOTR (Viola tricolor [12]; [28]) | Herbicidal efficacy against VERPE (Veronica persica [13]; 80 g/ha) | Herbicidal efficacy against VERPE (Veronica persica [13]; 320 g/ha) | Herbicidal efficacy against SETVI (Setaria viridis [14]; [22]) | herbicidal activity SETVI (Setaria viridis [14]; dosage 320 g/ha) | herbicidal activity MATIN (Matricaria inodora [16])
80%: Herbicidal efficacy against POLCO (Polygonum convolvulus; [23]) | Herbicidal efficacy against ECHCG (ECHCG [4]; 80 g/ha) | herbicidal activity AMARE (Amaranthus retroflexus [5]) | Herbicidal efficacy against AMARE (Amaranthus retroflexus [5]; [25]) | Herbicidal efficacy against STEME (Stellaria media [9]; 80 g/ha) | Herbicidal efficacy against CYPES (Cyperus serotinus; [22]) | herbicidal activity CYPES (Cyperus serotinus; dosage 320 g/ha) | Herbicidal efficacy against SETVI (Setaria viridis [14]; [21])
30%: Herbicidal efficacy against AVEFA (Avena fatua [1]; [21]) | Herbicidal efficacy against ALOMY (Alopecurus myosuroides [3]; [21])
60%: Herbicidal efficacy against AVEFA (Avena fatua [1]; [22])
50%: Herbicidal efficacy against CYPES (Cyperus serotinus; [21])

CSc1c(C(F)F)ccc(C(=O)Nc2nnc(C)o2)c1C [Example 7-1]
40: Herbicidal efficacy against AVEFA (Avena fatua [18]) | Herbicidal efficacy against POLCO (Polygonum convolvulus; dosage 320 g/ha, Table L) | Herbicidal efficacy against MATIN (Matricaria inodora [15]; dosage 20 g/ha, Table M)
70: Herbicidal efficacy against ALOMY (Alopecurus myosuroides [17]; dosage 20 g/ha, Table M) | Herbicidal efficacy against AVEFA (Avena fatua [1]; dosage 320 g/ha, Table L) | Herbicidal efficacy against ALOMY (Alopecurus myosuroides [3]; dosage 320 g/ha, Table L) | Herbicidal efficacy against CYPES (Cyperus serotinus; dosage 320 g/ha, Table L) | Herbicidal efficacy against SETVI (Setaria viridis [14]; dosage 80 g/ha, Table L)
100: Herbicidal efficacy against SETVI (Setaria viridis [19]) | Herbicidal efficacy against VIOTR (Viola tricolor [11]; dosage 320 g/ha, Table L) | Herbicidal efficacy against VIOTR (Viola tricolor [12]; dosage 20 g/ha, Table M) | Herbicidal efficacy against SETVI (Setaria viridis [14]; dosage 320 g/ha, Table L)
90: Herbicidal efficacy against VERPE (Veronica persica [6]; dosage 20 g/ha, Table M) | Herbicidal efficacy against VIOTR (Viola tricolor [11]; dosage 80 g/ha, Table L)
30: Herbicidal efficacy against POLCO (Polygonum convolvulus; dosage 80 g/ha, Table L) | Herbicidal efficacy against LOLMU (LOLMU; dosage 320 g/ha)
0: Herbicidal efficacy against LOLMU (LOLMU; dosage 80 g/ha)
100%: herbicidal activity AMARE (Amaranthus retroflexus [2]) | herbicidal activity AMARE (Amaranthus retroflexus [5]) | herbicidal activity SETVI (Setaria viridis [19]) | herbicidal activity ABUTH (Abutilon theophrasti [10]) | herbicidal activity VIOTR (Viola tricolor [11]; dosage 320 g/ha) | herbicidal activity VIOTR (Viola tricolor [12]; 80 g/ha) | Herbicidal activity ECHCG (ECHCG [20])
90%: herbicidal activity ALOMY (Alopecurus myosuroides [17]; 80 g/ha, Table C) | Herbicidal activity PHBPU (Pharbitis purpureum) | Herbicidal activity STEME (Stellaria media [7])
60: Herbicidal efficacy against ALOMY (Alopecurus myosuroides [3]; dosage 80 g/ha, Table L) | Herbicidal efficacy against CYPES (Cyperus serotinus; dosage 80 g/ha, Table L)
80%: Herbicidal activity STEME (Stellaria media [9]) | herbicidal activity MATIN (Matricaria inodora [16])
20: Herbicidal efficacy against AVEFA (Avena fatua [1]; dosage 80 g/ha, Table L)

Cc1nnc(NC(=O)c2ccc(C(F)F)c([S+](C)[O-])c2C)o1 (centres unmarked) [Example 7-2]
80%: Herbicidal activity STEME (Stellaria media [9])
10: Herbicidal efficacy against LOLMU (LOLMU; dosage 80 g/ha)
90%: herbicidal activity AVEFA (Avena fatua [1]; [29]) | herbicidal activity AVEFA (Avena fatua [18]; 80 g/ha, Table C) | herbicidal activity ALOMY (Alopecurus myosuroides [3]; [29]) | Herbicidal activity PHBPU (Pharbitis purpureum) | herbicidal activity CYPES (Cyperus serotinus; dosage 320 g/ha) | Herbicidal activity ECHCG (ECHCG [20]) | herbicidal activity MATIN (Matricaria inodora [16])
90: Herbicidal efficacy against SETVI (Setaria viridis [14]; dosage 80 g/ha, Table L)
100%: herbicidal activity AMARE (Amaranthus retroflexus [2]) | herbicidal activity AMARE (Amaranthus retroflexus [5]) | herbicidal activity SETVI (Setaria viridis [19]) | Herbicidal activity STEME (Stellaria media [7]) | herbicidal activity ABUTH (Abutilon theophrasti [8]) | herbicidal activity ABUTH (Abutilon theophrasti [10]) | herbicidal activity VIOTR (Viola tricolor [11]; dosage 320 g/ha) | herbicidal activity VIOTR (Viola tricolor [12]; 80 g/ha) | herbicidal activity SETVI (Setaria viridis [14]; dosage 320 g/ha)
70: Herbicidal efficacy against AVEFA (Avena fatua [1]; dosage 80 g/ha, Table L) | Herbicidal efficacy against AVEFA (Avena fatua [18]) | Herbicidal efficacy against MATIN (Matricaria inodora [15]; dosage 20 g/ha, Table M)
80: Herbicidal efficacy against ALOMY (Alopecurus myosuroides [3]; dosage 80 g/ha, Table L) | Herbicidal efficacy against CYPES (Cyperus serotinus; dosage 80 g/ha, Table L)
30: Herbicidal efficacy against POLCO (Polygonum convolvulus; dosage 80 g/ha, Table L)
100: Herbicidal efficacy against VERPE (Veronica persica [6]; dosage 20 g/ha, Table M) | Herbicidal efficacy against SETVI (Setaria viridis [19]) | Herbicidal efficacy against VIOTR (Viola tricolor [11]; dosage 80 g/ha, Table L) | Herbicidal efficacy against VIOTR (Viola tricolor [12]; dosage 20 g/ha, Table M)
